For one data set, the system named is PDE4. Put plainly: PDE4 inhibition, scintillation proximity assay (SPA).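 On PDE4 Inhibitory Activity (concentration for the inhibition rate of 50%): A below 100 nM B 100 to below 1000 nM C 1000 nM or more.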 It counts as biochemical. In a few lines:
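Scintillation proximity read-out: [2,8-3H]-cAMP hydrolysis by PDE4 ran 120 min at room temperature in Tris-HCl pH 7.4 buffer with 8.3 mM MgCl2, 1.7 mM EGTA and 3 mg/mL BSA. Bead-bound product (YSi-SPA with ZnSO4, 15 min) counted; blank lacks enzyme, control has DMSO only.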
(In a scintillation proximity assay essentially only radioactivity close to the scintillant gives light.)

The nature of data set [1]: Hepatic metabolic stability (rat liver microsome method). The class given is in vitro ADME. The conditions noted are these: rat liver microsomes 0.5 mg/mL, test substance 1 μM, NADPH 1 mM, 37° C., 30 minutes. In a few lines: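 Test compound (1 μM) preincubated with rat liver microsomes (0.5 mg/mL) in 100 mM potassium phosphate pH 7.4 at 37° C; NADPH (1 mM) started reaction, acetonitrile stopped it at 0 and 30 min. LC-MS quantitation; % remaining = 30-min/0-min ×100, graded A ≥75%, B 60–<75%, C 45–<60%, D <45%.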

The mark [2] stands for this setting: scintillation proximity assay (SPA), evaluated as classes A, B, C, read-out: PDE4 Inhibitory Activity (concentration for the inhibition rate of 50%).
[3] abbreviates: scintillation proximity assay, class symbols, read-out: PDE4 Inhibitory Activity.

Molecules are shown by their SMILES. Where two headings read alike, the source gives them in different places.

The values below come from patent US10669283B2, “Compound and pharmacologically acceptable salt thereof” (MEIJI SEIKA PHARMA CO., LTD., priority 2016, dated 2020).

For the molecule `Cc1csc(-c2ccc(OC(F)(F)C(C)(C)O)c3nc(N4CC5CC(C4)N5)oc23)n1` [Example 306, 1-((2-(3,6-Diazabicyclo[3.1.1]heptan-3-yl)-7-(4-methylthiazol-2-yl)benzo[d]oxazol-4-yl)oxy)-1,1-difluoro-2-methylpropan-2-ol], in the data set on PDE4 (setting [2]), the IC50 fell in the range of 0.1 to 1 µM. In addition, the “Residual ratio (% remaining for 30-minute reaction)” value in data set [1] is listed as “A (a % remaining rate of 75% or more)”.
With `OCC(F)(F)Oc1ccc(-c2nccs2)c2oc(N3CC4CCC(C3)N4)nc12` [Example 404, 2-((2-(3,8-diazabicyclo [3.2.1]octan-3-yl) 7-(thiazol-2-yl)benzo[d]oxazol-4-yl)oxy)-2,2-difluoroethan-1-ol], the IC50 in the data set with PDE4 (setting [3]) is less than 0.1 µM. The “Residual ratio (% remaining for 30-minute reaction)” value in data set [1] is “B (60% or more and less than 75%)”.
Turning to `CC(C)(O)C(F)(F)Oc1ccc(-c2ncns2)c2oc(N3CC4CCC(C3)N4)nc12` [Example 327, 1-((2-(3,8-Diazabicyclo[3.2.1]octan-3-yl)-7-(1,2,4-thiadiazol-5-yl)benzo[d]oxazol-4-yl)oxy)-1,1-difluoro-2-methylpropan-2-ol], in the data set on PDE4 (setting [3]), the IC50 was less than 0.1 µM. Besides, the “Residual ratio (% remaining for 30-minute reaction)” value in data set [1] is “B (60% or more and less than 75%)”.
Turning to `Cn1ccc(-c2ccc(OC(F)(F)C(C)(C)O)c3nc(N4CC5CC(C4)N5)oc23)n1` [Example 394, 1-((2-(3,6-diazabicyclo[3.1.1]heptan-3-yl)-7-(1-methyl-1H-pyrazol-3-yl)benzo[d]oxazol-4-yl)oxy)-1,1-difluoro-2-methylpropan-2-ol], the IC50 with PDE4 (setting [3]) was in the range of 0.1 to 1 µM. Further, in data set [1], the “Residual ratio (% remaining for 30-minute reaction)” value is reported as “A (a % remaining rate of 75% or more)”.
With `Cc1csc(-c2ccc(OC(F)(F)C(C)(C)O)c3nc(N4CC5CCC(C4)N5)oc23)n1` [Example 318, 1-((2-(3,8-Diazabicyclo[3.2.1]octan-3-yl)-7-(4-methylthiazol-2-yl)benzo[d]oxazol-4-yl)oxy)-1,1-difluoro-2-methylpropan-2-ol], the IC50 in the data set with PDE4 (setting [2]) is less than 0.1 µM. In addition, in data set [1], the “Residual ratio (% remaining for 30-minute reaction)” value is “B (60% or more and less than 75%)”.
For `Cc1cc(C(F)(F)F)c(Oc2ccc(-c3nccs3)c3oc(N4CC5CC(C4)N5)nc23)nn1` [Example 340, 2-(3,6-diazabicyclo[3.1.1]heptan-3-yl)-4-((6-methyl-4-(trifluoro-methyl)pyridazin-3-yl)oxy)-7-(thiazol-2-yl)benzo[d] oxazole], the IC50 in the data set on PDE4 (setting [3]) is less than 0.1 µM. In addition, the “Residual ratio (% remaining for 30-minute reaction)” value in data set [1] is listed as “A (a % remaining rate of 75% or more)”.
`FC(F)(F)Oc1c(Cl)cc(-c2cscn2)c2oc(N3CC4CCC(C3)N4)nc12` [Example 8, 2-(3,8-Diazabicyclo[3.2.1]octan-3-yl)-5-chloro-7-(thiazol-4-yl)-4-(trifluoromethoxy)benzo[d]oxazole]: in the data set with PDE4 (setting [2]), the IC50 was less than 0.1 µM. For the same molecule, the “Residual ratio (% remaining for 30-minute reaction)” value in data set [1] is recorded as “A (a % remaining rate of 75% or more)”.
For the molecule `Cn1ccc(-c2ccc(OC(F)(F)C(C)(C)O)c3nc(N4CC5CCC(C4)N5)oc23)n1` [Example 328, 1-((2-(3,8-Diazabicyclo[3.2.1]octan-3-yl)-7-(1-methyl-1H-pyrazol-3-yl)benzo[d]oxazol-4-yl)oxy)-1,1-difluoro-2-methylpropan-2-ol], the IC50 in the data set on PDE4 (setting [3]) was less than 0.1 µM. The “Residual ratio (% remaining for 30-minute reaction)” value in data set [1] is “A (a % remaining rate of 75% or more)”.
Take `CN(CCO)C(=O)c1ccc(-c2nccs2)c2oc(N3CC4CC(C3)N4)nc12` [Example 356, 2-(3,6-diazabicyclo [3.1.1]heptan-3-yl)-N-(2-hydroxyethyl)-N-methyl-7-(thiazol-2-yl)benzo[d] oxazole-4-carboxamide]: the IC50 in the data set on PDE4 (setting [3]) is 0.1 to 1 µM. Moreover, the “Residual ratio (% remaining for 30-minute reaction)” value in data set [1] was “A (a % remaining rate of 75% or more)”.
Consider `CC(O)C(F)(F)Oc1ccc(-c2nccs2)c2oc(N3CC4CC(C3)N4O)nc12` (single isomer, unassigned) [Example 373, 3-(4-(1,1-difluoro-2-hydroxypropoxy)-7-(thiazol-2-yl)benzo [d]oxazol-2-yl)-3,6-diazabicyclo[3.1.1] heptan-6-ol], for which the IC50 with PDE4 (setting [3]) is less than 0.1 µM. For the same molecule, the “Residual ratio (% remaining for 30-minute reaction)” value in data set [1] is “B (60% or more and less than 75%)”.
On to `FC(F)(F)c1ccc(Oc2cc(-c3nccs3)c3oc(N4CC5CC(C4)N5)nc3c2)nc1` [Example 413, 2-(3,6-diazabicyclo [3.1.1]heptan-3-yl)-7-(thiazol-2-yl)-5-((5-(trifluoro-methyl)pyridin-2-yl)oxy) benzo[d] oxazole], for which, in the data set with PDE4 (setting [3]), the IC50 is less than 0.1 µM. Besides, in data set [1], the “Residual ratio (% remaining for 30-minute reaction)” value is “A (a % remaining rate of 75% or more)”.
For `CC(C)(O)C(F)(F)Oc1ccc(-c2ccc(Cl)cn2)c2oc(N3CC4CC(C3)N4)nc12` [Example 363, 1-((2-(3,6-diazabicyclo [3.1.1]heptan-3-yl)-7-(5-chloropyridin-2-yl)benzo[d]oxazol-4-yl)oxy)-1,1-difluoro-2-methyl-propan-2-ol], in that order: less than 0.1 µM and “A (a % remaining rate of 75% or more)”.
For the molecule `OCc1ccc(Oc2ccc(-c3nccs3)c3oc(N4CC5CC(C4)N5)nc23)nc1` [Example 341, (6-((2-(3,6-diazabicyclo[3.1.1]heptan-3-yl)-7-(thiazol-2-yl)benzo[d]oxazol-4-yl)oxy)pyridin-3-yl)methanol], the IC50 in the data set on PDE4 (setting [3]) was less than 0.1 µM. The “Residual ratio (% remaining for 30-minute reaction)” value in data set [1] is listed as “A (a % remaining rate of 75% or more)”.
Take `CC(C)(O)C(F)(F)Oc1ccc(-c2ccccn2)c2oc(N3CC4CCC(C3)N4)nc12` [Example 317, 1-((2-(3,8-Diazabicyclo[3.2.1]octan-3-yl)-7-(pyridin-2-yl)benzo[d]oxazol-4-yl)oxy)-1,1-difluoro-2-methylpropan-2-ol]: the IC50 in the data set with PDE4 (setting [2]) was less than 0.1 µM. For the same molecule, in data set [1], the “Residual ratio (% remaining for 30-minute reaction)” value is reported as “A (a % remaining rate of 75% or more)”.
In the case of `OCC(O)C(F)(F)Oc1ccc(-c2nccs2)c2oc(N3CC4CC(C3)N4)nc12` (stereo not shown) [Example 370, 3-((2-(3,6-diazabicyclo[3.1.1]heptan-3-yl)-7-(thiazol-2-yl)benzo[d]oxazol-4-yl)oxy)-3,3-difluoropropane-1,2-diol], the IC50 with PDE4 (setting [3]) is less than 0.1 µM. For the same molecule, the “Residual ratio (% remaining for 30-minute reaction)” value in data set [1] is listed as “A (a % remaining rate of 75% or more)”.
In the case of `FC(F)(F)c1ccc(Oc2ccc(-c3nccs3)c3oc(N4CC5CC(C4)N5)nc23)nc1` [Example 336, 2-(3,6-diazabicyclo [3.1.1]heptan-3-yl)-7-(thiazol-2-yl)-4-((5-(trifluoromethyl)pyridin-2-yl)oxy)benzo[d]oxazole], the IC50 in the data set on PDE4 (setting [3]) is less than 0.1 µM. Moreover, the “Residual ratio (% remaining for 30-minute reaction)” value in data set [1] was “B (60% or more and less than 75%)”.
For the molecule `CC(O)C(F)(F)Oc1ccc(-c2nccs2)c2oc(N3CC4CC(C3)N4O)nc12` (single isomer, unassigned) [Example 372, 3-(4-(1,1-difluoro-2-hydroxypropoxy)-7-(thiazol-2-yl)benzo [d]oxazol-2-yl)-3,6-diazabicyclo[3.1.1] heptan-6-ol], in the data set on PDE4 (setting [3]), the IC50 is less than 0.1 µM. Moreover, the “Residual ratio (% remaining for 30-minute reaction)” value in data set [1] was “B (60% or more and less than 75%)”.
On to `FC(F)(F)C(OCc1nnn[nH]1)c1ccc(-c2nccs2)c2oc(N3CC4CCC(C3)N4)nc12` (stereo not shown) [Example 230, 4-(1-((1H-tetrazol-5-yl)methoxy)-2,2,2-trifluoroethyl)-2-(3,8-diazabicyclo[3.2.1]octan-3-yl)-7-(thiazol-2-yl)benzo[d]oxazole], for which the IC50 with PDE4 (setting [2]) is less than 0.1 µM. For the same molecule, in data set [1], the “Residual ratio (% remaining for 30-minute reaction)” value is recorded as “A (a % remaining rate of 75% or more)”.
Consider `C[S+]([O-])c1ccc(-c2nccs2)c2oc(N3CC4CC(C3)N4)nc12` (stereo not shown) [Example 346, 2-(3,6-diazabicyclo[3.1.1]heptan-3-yl)-4-(methylsulfinyl)-7-(thiazol-2-yl)benzo [d]oxazole], for which the IC50 in the data set with PDE4 (setting [3]) is less than 0.1 µM. The “Residual ratio (% remaining for 30-minute reaction)” value in data set [1] is “A (a % remaining rate of 75% or more)”.
Turning to `Fc1ccc(-c2cc(Cl)c(OC(F)(F)F)c3nc(N4CC5CCC(C4)N5)oc23)nc1` [Example 10, 2-(3,8-Diazabicyclo[3.2.1]octan-3-yl)-5-chloro-7-(5-fluoropyridin-2-yl)-4-(trifluoromethoxy)benzo[d]oxazole], the IC50 in the data set on PDE4 (setting [2]) was less than 0.1 µM. Further, the “Residual ratio (% remaining for 30-minute reaction)” value in data set [1] is “A (a % remaining rate of 75% or more)”.
In the case of `FC(F)(F)Oc1ccc(-c2nccs2)c2oc(N3CC4CC(C3)N4)nc12` [Example 29, 2-(3,6-Diazabicyclo[3.1.1]heptan-3-yl)-7-(thiazol-2-yl)-4-(trifluoromethoxy)benzo[d]oxazole], the IC50 in the data set with PDE4 (setting [2]) is less than 0.1 µM. Further, in data set [1], the “Residual ratio (% remaining for 30-minute reaction)” value is “B (60% or more and less than 75%)”.
With `c1cnc(Oc2ccc(-c3nccs3)c3oc(N4CC5CC(C4)N5)nc23)nc1` [Example 338, 2-(3,6-diazabicyclo [3.1.1]heptan-3-yl)-4-(pyrimidin-2-yloxy)-7-(thiazol-2-yl)benzo[d]oxazole], in the data set with PDE4 (setting [3]), the IC50 is less than 0.1 µM. Also, the “Residual ratio (% remaining for 30-minute reaction)” value in data set [1] is listed as “A (a % remaining rate of 75% or more)”.
As to `OC(c1cc(-c2nccs2)c2oc(N3CC4CCC(C3)N4)nc2c1)C(F)F` (stereo not shown) [Example 104, 1-(2-(3,8-Diazabicyclo[3.2.1]octan-3-yl)-7-(thiazol-2-yl)benzo[d]oxazol-5-yl)-2,2-difluoroethan-1-ol], the IC50 in the data set on PDE4 (setting [2]) is less than 0.1 µM. For the same molecule, in data set [1], the “Residual ratio (% remaining for 30-minute reaction)” value is “B (60% or more and less than 75%)”.
